Assay results: patent publication US20170050957A1, “4-AMINO-6-(HETEROCYCLIC)PICOLINATES AND 6-AMINO-2-(HETEROCYCLIC)PYRIMIDINE-4-CARBOXYLATES AND THEIR USE AS HERBICIDES” (Dow AgroSciences LLC, priority 2013, published 2017)

Test system: Wheat and Barley and test plant species
Assay: Post-emergent Test III, herbicidal activity in wheat and barley (Table 17; visual injury, GR20/GR50/GR80/GR90)
Type: in vivo
Conditions: 21 d; for Visual Growth Reduction (%) 21 Days After Application, CIRAR / Visual Growth Reduction (%) 21 Days After Application, GALAP / Visual Growth Reduction (%) 21 Days After Application, HORVS / Visual Growth Reduction (%) 21 Days After Application, KCHSC / Visual Growth Reduction (%) 21 Days After Application, LAMPU / Visual Growth Reduction (%) 21 Days After Application, MATCH / Visual Growth Reduction (%) 21 Days After Application, PAPRH / Visual Growth Reduction (%) 21 Days After Application, SASKR / Visual Growth Reduction (%) 21 Days After Application, SINAR / Visual Growth Reduction (%) 21 Days After Application, TRZAS / Visual Growth Reduction (%) 21 Days After Application, VERPE / Visual Growth Reduction (%) 21 Days After Application, VIOTR: post-emergent
Procedure: Post-emergent Test III. Seeds of the desired test plant species were planted in Sun Gro MetroMix® 306 planting mixture, which typically has a pH of 6.0 to 6.8 and an organic matter content of about 30 percent, in plastic pots with a surface area of 103.2 square centimeters (cm^2). When required to ensure good germination and healthy plants, a fungicide treatment and/or other chemical or physical treatment was applied. The plants were grown for 7-36 days (d) in a greenhouse with an approximate 14 hour (h) photoperiod which was maintained at about 18° C. during the day and 17° C. during the night. Nutrients and water were added on a regular basis and supplemental lighting was provided with overhead metal halide 1000-Watt lamps as necessary. The plants were employed for testing when they reached the second or third true leaf stage.
A weighed amount, determined by the highest rate to be tested, of each test compound was placed in a 25 mL glass vial and was dissolved in 4 mL of a 97:3 v/v mixture of acetone and DMSO to obtain concentrated stock solutions. […] The concentrated stock solutions obtained were diluted with 20 mL of an aqueous mixture containing acetone, water, isopropyl alcohol, DMSO, Agri-Dex crop oil concentrate, and X-77 surfactant in a 48:39:10:1.5:1.5:0.02 v/v ratio to obtain spray solutions containing the highest application rates. Additional application rates were obtained by serial dilution of 12 mL of the high rate solution into a solution containing 2 mL of 97:3 v/v mixture of acetone and DMSO and 10 mL of an aqueous mixture containing acetone, water, isopropyl alcohol, DMSO, Agri-Dex crop oil concentrate, and X-77 surfactant in a 48:39:10:1.5:1.5:0.02 v/v ratio to obtain 1/2×, 1/4×, 1/8× and 1/16× rates of the high rate. Compound requirements are based upon a 12 mL application volume at a rate of 187 liters per hectare (L/ha). Formulated compounds were applied to the plant material with an overhead Mandel track sprayer equipped with 8002E nozzles calibrated to deliver 187 L/ha over an application area of 0.503 square meters at a spray height of 18 inches (43 cm) above the average plant canopy height. Control plants were sprayed in the same manner with the solvent blank.
The treated plants and control plants were placed in a greenhouse as described above and watered by subirrigation to prevent wash-off of the test compounds. After 21 d, the condition of the test plants as compared with that of the untreated plants was determined visually and scored on a scale of 0 to 100 percent where 0 corresponds to no injury and 100 corresponds to complete kill. By applying the well-accepted probit analysis as described by J. Berkson in Journal of the American Statistical […], 48, 565 (1953) and by D. Finney in “Probit Analysis” Cambridge University Press (1952), the above data can be used to calculate GR20, GR50, GR80 and GR90 values, which are defined as growth reduction factors that correspond to the effective dose of herbicide required to kill or control 20 percent, 50 percent, 80 percent or 90 percent, respectively, of a target plant.

Nc1c(F)c(-c2ccc3cc[nH]c3c2F)nc(C(=O)O)c1Cl [Compound 1.16, 4-Amino-3-chloro-5-fluoro-6-(7-fluoro-1H-indol-6-yl)picolinic acid]
Visual Growth Reduction (%) 21 Days After Application, CIRAR (CIRAR, 17.5 g ai/ha): D (60-74) | Visual Growth Reduction (%) 21 Days After Application, CIRAR (CIRAR, 35 g ai/ha): B (85-94) | Visual Growth Reduction (%) 21 Days After Application, CIRAR (CIRAR, 70 g ai/ha): A (95-100) | GR50, CIRAR (CIRAR, dose for 50 percent growth reduction, probit analysis): 9 g ai/ha | GR80, CIRAR (CIRAR, dose for 80 percent growth reduction, probit analysis): 25 g ai/ha | GR90, CIRAR (CIRAR, dose for 90 percent growth reduction, probit analysis): 43 g ai/ha | Visual Growth Reduction (%) 21 Days After Application, GALAP (GALAP, 17.5 g ai/ha): F (30-44) | Visual Growth Reduction (%) 21 Days After Application, GALAP (GALAP, 35 g ai/ha): E (45-59) | Visual Growth Reduction (%) 21 Days After Application, GALAP (GALAP, 70 g ai/ha): A (95-100) | GR50, GALAP (GALAP, dose for 50 percent growth reduction, probit analysis): 26 g ai/ha | GR80, GALAP (GALAP, dose for 80 percent growth reduction, probit analysis): 34 g ai/ha | GR90, GALAP (GALAP, dose for 90 percent growth reduction, probit analysis): 40 g ai/ha | Visual Growth Reduction (%) 21 Days After Application, HORVS (HORVS, 17.5 g ai/ha): G (0-29) | Visual Growth Reduction (%) 21 Days After Application, HORVS (HORVS, 35 g ai/ha): G (0-29) | Visual Growth Reduction (%) 21 Days After Application, HORVS (HORVS, 70 g ai/ha): F (30-44) | GR20, HORVS (HORVS, dose for 20 percent growth reduction, probit analysis): 44 g ai/ha | Visual Growth Reduction (%) 21 Days After Application, KCHSC (KCHSC, 17.5 g ai/ha): C (75-84) | Visual Growth Reduction (%) 21 Days After Application, KCHSC (KCHSC, 35 g ai/ha): B (85-94) | Visual Growth Reduction (%) 21 Days After Application, KCHSC (KCHSC, 70 g ai/ha): A (95-100) | GR50, KCHSC (KCHSC, dose for 50 percent growth reduction, probit analysis): 7 g ai/ha | GR80, KCHSC (KCHSC, dose for 80 percent growth reduction, probit analysis): 20 g ai/ha | GR90, KCHSC (KCHSC, dose for 90 percent growth reduction, probit analysis): 39 g ai/ha | Visual Growth Reduction (%) 21 Days After Application, LAMPU (LAMPU, 17.5 g ai/ha): C (75-84) | Visual Growth Reduction (%) 21 Days After Application, LAMPU (LAMPU, 35 g ai/ha): A (95-100) | Visual Growth Reduction (%) 21 Days After Application, LAMPU (LAMPU, 70 g ai/ha): A (95-100) | GR50, LAMPU (LAMPU, dose for 50 percent growth reduction, probit analysis): 3 g ai/ha | GR80, LAMPU (LAMPU, dose for 80 percent growth reduction, probit analysis): 10 g ai/ha | GR90, LAMPU (LAMPU, dose for 90 percent growth reduction, probit analysis): 19 g ai/ha | Visual Growth Reduction (%) 21 Days After Application, MATCH (MATCH, 17.5 g ai/ha): B (85-94) | Visual Growth Reduction (%) 21 Days After Application, MATCH (MATCH, 35 g ai/ha): A (95-100) | Visual Growth Reduction (%) 21 Days After Application, MATCH (MATCH, 70 g ai/ha): A (95-100) | GR50, MATCH (MATCH, dose for 50 percent growth reduction, probit analysis): 3 g ai/ha | GR80, MATCH (MATCH, dose for 80 percent growth reduction, probit analysis): 9 g ai/ha | GR90, MATCH (MATCH, dose for 90 percent growth reduction, probit analysis): 16 g ai/ha | Visual Growth Reduction (%) 21 Days After Application, PAPRH (PAPRH, 17.5 g ai/ha): A (95-100) | Visual Growth Reduction (%) 21 Days After Application, PAPRH (PAPRH, 35 g ai/ha): A (95-100) | Visual Growth Reduction (%) 21 Days After Application, PAPRH (PAPRH, 70 g ai/ha): A (95-100) | GR50, PAPRH (PAPRH, dose for 50 percent growth reduction, probit analysis): 0.0004 g ai/ha | GR80, PAPRH (PAPRH, dose for 80 percent growth reduction, probit analysis): 0.0004 g ai/ha | GR90, PAPRH (PAPRH, dose for 90 percent growth reduction, probit analysis): 0.0004 g ai/ha | Visual Growth Reduction (%) 21 Days After Application, SASKR (SASKR, 17.5 g ai/ha): D (60-74) | Visual Growth Reduction (%) 21 Days After Application, SASKR (SASKR, 35 g ai/ha): C (75-84) | Visual Growth Reduction (%) 21 Days After Application, SASKR (SASKR, 70 g ai/ha): B (85-94) | GR50, SASKR (SASKR, dose for 50 percent growth reduction, probit analysis): 10 g ai/ha | GR80, SASKR (SASKR, dose for 80 percent growth reduction, probit analysis): 28 g ai/ha | GR90, SASKR (SASKR, dose for 90 percent growth reduction, probit analysis): 78 g ai/ha | Visual Growth Reduction (%) 21 Days After Application, SINAR (SINAR, 17.5 g ai/ha): B (85-94) | Visual Growth Reduction (%) 21 Days After Application, SINAR (SINAR, 35 g ai/ha): A (95-100) | Visual Growth Reduction (%) 21 Days After Application, SINAR (SINAR, 70 g ai/ha): A (95-100) | GR50, SINAR (SINAR, dose for 50 percent growth reduction, probit analysis): 5 g ai/ha | GR80, SINAR (SINAR, dose for 80 percent growth reduction, probit analysis): 11 g ai/ha | GR90, SINAR (SINAR, dose for 90 percent growth reduction, probit analysis): 17 g ai/ha | Visual Growth Reduction (%) 21 Days After Application, TRZAS (TRZAS, 17.5 g ai/ha): G (0-29) | Visual Growth Reduction (%) 21 Days After Application, TRZAS (TRZAS, 35 g ai/ha): G (0-29) | Visual Growth Reduction (%) 21 Days After Application, TRZAS (TRZAS, 70 g ai/ha): F (30-44) | GR20, TRZAS (TRZAS, dose for 20 percent growth reduction, probit analysis): 41 g ai/ha | Visual Growth Reduction (%) 21 Days After Application, VERPE (VERPE, 17.5 g ai/ha): A (95-100) | Visual Growth Reduction (%) 21 Days After Application, VERPE (VERPE, 35 g ai/ha): A (95-100) | Visual Growth Reduction (%) 21 Days After Application, VERPE (VERPE, 70 g ai/ha): A (95-100) | GR50, VERPE (VERPE, dose for 50 percent growth reduction, probit analysis): 0.0004 g ai/ha | GR80, VERPE (VERPE, dose for 80 percent growth reduction, probit analysis): 0.05 g ai/ha | GR90, VERPE (VERPE, dose for 90 percent growth reduction, probit analysis): 1 g ai/ha | Visual Growth Reduction (%) 21 Days After Application, VIOTR (VIOTR, 17.5 g ai/ha): E (45-59) | Visual Growth Reduction (%) 21 Days After Application, VIOTR (VIOTR, 35 g ai/ha): D (60-74) | Visual Growth Reduction (%) 21 Days After Application, VIOTR (VIOTR, 70 g ai/ha): C (75-84) | GR50, VIOTR (VIOTR, dose for 50 percent growth reduction, probit analysis): 19 g ai/ha | GR80, VIOTR (VIOTR, dose for 80 percent growth reduction, probit analysis): 56 g ai/ha | GR90, VIOTR (VIOTR, dose for 90 percent growth reduction, probit analysis): 99 g ai/ha
